Columns and labels:
STING = STING (Homo sapiens, UniProt Q86WV6); experiment: SPR; assay type: binding
cGAS = cGAS (Homo sapiens, UniProt Q8N884); experiment: SPR; assay type: binding
Chain of cGAS (Q8N884 whole entry): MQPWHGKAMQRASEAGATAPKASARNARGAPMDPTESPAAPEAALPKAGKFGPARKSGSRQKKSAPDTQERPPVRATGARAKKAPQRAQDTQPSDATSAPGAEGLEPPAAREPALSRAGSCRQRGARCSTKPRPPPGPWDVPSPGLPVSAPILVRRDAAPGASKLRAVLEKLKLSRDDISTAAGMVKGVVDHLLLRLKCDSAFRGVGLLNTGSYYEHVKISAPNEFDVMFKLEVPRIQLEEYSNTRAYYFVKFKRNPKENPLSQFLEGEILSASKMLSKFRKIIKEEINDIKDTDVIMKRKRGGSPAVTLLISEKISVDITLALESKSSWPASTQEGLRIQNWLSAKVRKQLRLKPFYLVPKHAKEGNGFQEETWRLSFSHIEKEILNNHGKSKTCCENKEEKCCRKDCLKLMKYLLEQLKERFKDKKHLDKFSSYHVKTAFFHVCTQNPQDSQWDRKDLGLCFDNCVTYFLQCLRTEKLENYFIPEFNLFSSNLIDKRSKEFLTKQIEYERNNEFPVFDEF

Chain of STING (Q86WV6 whole entry): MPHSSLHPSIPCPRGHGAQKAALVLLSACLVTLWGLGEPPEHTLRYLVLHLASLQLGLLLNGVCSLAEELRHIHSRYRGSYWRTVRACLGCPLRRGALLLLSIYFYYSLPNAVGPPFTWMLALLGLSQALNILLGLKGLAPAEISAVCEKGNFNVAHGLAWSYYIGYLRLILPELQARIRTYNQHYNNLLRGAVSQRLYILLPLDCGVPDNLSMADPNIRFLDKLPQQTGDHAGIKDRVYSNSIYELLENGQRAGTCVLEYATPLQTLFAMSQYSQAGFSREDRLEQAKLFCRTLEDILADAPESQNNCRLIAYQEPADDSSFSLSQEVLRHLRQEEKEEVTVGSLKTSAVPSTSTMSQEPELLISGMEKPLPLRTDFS

## COc1cc(O)c2c(=O)c(O)c(-c3ccc(O)cc3)oc2c1 [RH, rhamnocitrin]
STING
  Kd: 6.75 µM
cGAS
  Kd: 2.6 µM

Source: paper PMC11569172 (Scientific Reports, 2024)
